Non-standard residues stand in square brackets, D forms with d. Residues, ends and D or L forms follow the SMILES beside them. *: point of attachment. Adamantane1carbonyl = O=C(C12CC3CC(CC(C3)C1)C2)*; Benzoyl(4-CF3) = O=C(c1ccc(C(F)(F)F)cc1)*; NH((S)CH(Me)CH2NMe2) = C[C@@H](CN(C)C)N*; Benzoyl(4-OMe) = COc1ccc(C(=O)*)cc1; Gly(octyl) = CCCCCCCC[C@H](N)C(=O)O; Oxazole4CO(2-Me) = Cc1nc(C(=O)*)co1; Thiophene2carbonyl = O=C(c1cccs1)*; X20 = O=C(c1ccc2[nH]ccc2c1)*; X15 = O=C(c1ccc2cccnc2c1)*; X21 = O=C(c1ccc2ocnc2c1)*; X4 = O=C(C1CCc2ccccc2C1)*; Aib = CC(C)(N)C(=O)O; βAla = NCCC(=O)O
Legend:
Format in all cases: cell-based
[1] = tested on: intracellular Leishmania donovani (L.don. InMac); experiment: Intracellular Leishmania donovani assay (L.don. InMac); details: In vitro inhibition
Source text: (§1) Tests were done in triplicate.

[2] = tested on: Trypanosoma brucei rhodesiense (STIB 900 strain); experiment: Alamar Blue assay against Trypanosoma brucei rhodesiense grown in axenic medium; details: In vitro inhibition, read-out: T.b.rhod.
How it was run: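 Alamar Blue-based IC50 determination, in triplicate, on axenically grown STIB 900 trypanosomes. Melarsoprol included as reference.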

Plasmodium falciparum = experiment: 3H-hypoxanthine incorporation assay against Plasmodium falciparum; details: In vitro inhibition, read-out: P.falc NF5
Procedure: as §1
IC50 values were calculated by linear interpolation.

[3] = tested on: Axenically grown Leishmania donovani amastigotes (strain MHOM/ET/67/L82); experiment: Axenic Leishmania donovani amastigote resazurin assay; details: In vitro inhibition, read-out: L.don. ax
How it was run: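 IC50 values derive from resazurin fluorescence (ex 536 nm, em 588 nm), expressed relative to the negative control, after 2-4 hours of plate development. Axenic amastigotes of strain MHOM/ET/67/L82 were used; each test run in triplicate.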

[4] = tested on: Trypanosoma cruzi trypomastigote forms (Tulahuen strain); experiment: Intracellular Trypanosoma cruzi assay in L6-cells, beta-galactosidase/CPRG readout; details: In vitro inhibition, read-out: T.cruzi.
How it was run: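 Readout was β-galactosidase cleavage of CPRG, read photometrically at 540 nm after 2–6 h colour development, giving IC50 values. Parasites: LacZ-expressing Tulahuen C2C4 strain grown in rat L6 myoblasts; run in triplicate.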

## CCCCCCCC[C@H](NC(=O)[C@@H]1CCCN1C(=O)C12CC3CC(CC(C3)C1)C2)C(=O)N[C@@H](CC(C)C)C(=O)NC(C)(C)C(=O)N[C@@H](CC(C)C)C(=O)N[C@@H](CC(C)C)C(=O)NC(C)(C)C(=O)NC(C)(C)C(=O)NCCC(=O)N[C@@H](C)CN(C)C [Compound 5770, (2S)-2-{[(2S)-1-(adamantane-1-carbonyl)pyrrolidin-2-yl]formamido}-N-[(1S)-1-[(1-{[(1S)-1-{[(1S)-1-{[1-({1-[(2-{[(2S)-1-(dimethylamino)propan-2-yl]carbamoyl}ethyl)carbamoyl]-1-methylethyl}carbamoyl)-1-methylethyl]carbamoyl}-3-methylbutyl]carbamoyl}-3-methylbutyl]carbamoyl}-1-methylethyl)carbamoyl]-3-methylbutyl]decanamide] (Adamantane1carbonyl-P[Gly(octyl)]L[Aib]LL[Aib][Aib][βAla]-{NH((S)CH(Me)CH2NMe2)})
[1]
  IC50: 0.338 µM
[2]
  IC50: 0.0006 µM
Plasmodium falciparum
  IC50: 0.0033 µM
[3]
  IC50: 0.001 µM
[4]
  IC50: 0.101 µM

## CCCCCCCC[C@H](NC(=O)[C@@H]1CCCN1C(=O)c1cccs1)C(=O)N[C@@H](CC(C)C)C(=O)NC(C)(C)C(=O)N[C@@H](CC(C)C)C(=O)N[C@@H](CC(C)C)C(=O)NC(C)(C)C(=O)NC(C)(C)C(=O)NCCC(=O)N[C@@H](C)CN(C)C [Compound 5904, (2S)-N-[(1S)-1-[(1-{[(1S)-1-{[(1S)-1-{[1-({1-[(2-{[(2S)-1-(dimethylamino)propan-2-yl]carbamoyl}ethyl)carbamoyl]-1-methylethyl}carbamoyl)-1-methylethyl]carbamoyl}-3-methylbutyl]carbamoyl}-3-methylbutyl]carbamoyl}-1-methylethyl)carbamoyl]-3-methylbutyl]-2-{[(2S)-1-(thiophene-2-carbonyl)pyrrolidin-2-yl]formamido}decanamide] (Thiophene2carbonyl-P[Gly(octyl)]L[Aib]LL[Aib][Aib][βAla]-{NH((S)CH(Me)CH2NMe2)})
[1]
  IC50: 42.5 µM
[2]
  IC50: 0.0002 µM
Plasmodium falciparum
  IC50: 32.1 µM
[3]
  IC50: 42.5 µM
[4]
  IC50: 36.3 µM

## CCCCCCCC[C@H](NC(=O)[C@@H]1CCCN1C(=O)c1coc(C)n1)C(=O)N[C@@H](CC(C)C)C(=O)NC(C)(C)C(=O)N[C@@H](CC(C)C)C(=O)N[C@@H](CC(C)C)C(=O)NC(C)(C)C(=O)NC(C)(C)C(=O)NCCC(=O)N[C@@H](C)CN(C)C [Compound 5905, (2S)-N-[(1S)-1-[(1-{[(1S)-1-{[(1S)-1-{[1-({1-[(2-{[(2S)-1-(dimethylamino)propan-2-yl]carbamoyl}ethyl)carbamoyl]-1-methylethyl}carbamoyl)-1-methylethyl]carbamoyl}-3-methylbutyl]carbamoyl}-3-methylbutyl]carbamoyl}-1-methylethyl)carbamoyl]-3-methylbutyl]-2-{[(2S)-1-(2-methyl-1,3-oxazole-4-carbonyl)pyrrolidin-2-yl]formamido}decanamide] ({Oxazole4CO(2-Me)}-P[Gly(octyl)]L[Aib]LL[Aib][Aib][βAla]-{NH((S)CH(Me)CH2NMe2)})
[1]
  IC50: 42.4 µM
[2]
  IC50: 0.0002 µM
Plasmodium falciparum
  IC50: 26.4 µM
[3]
  IC50: 32 µM
[4]
  IC50: 42.5 µM

## CCCCCCCC[C@H](NC(=O)[C@@H]1CCCN1C(=O)C1CCc2ccccc2C1)C(=O)N[C@@H](CC(C)C)C(=O)NC(C)(C)C(=O)N[C@@H](CC(C)C)C(=O)N[C@@H](CC(C)C)C(=O)NC(C)(C)C(=O)NC(C)(C)C(=O)NCCC(=O)N[C@@H](C)CN(C)C (stereo partly drawn) [Compound 5910, (2S)-N-[(1S)-1-[(1-{[(1S)-1-{[(1S)-1-{[1-({1-[(2-{[(2S)-1-(dimethylamino)propan-2-yl]carbamoyl}ethyl)carbamoyl]-1-methylethyl}carbamoyl)-1-methylethyl]carbamoyl}-3-methylbutyl]carbamoyl}-3-methylbutyl]carbamoyl}-1-methylethyl)carbamoyl]-3-methylbutyl]-2-{[(2S)-1-(1,2,3,4-tetrahydronaphthalene-2-carbonyl)pyrrolidin-2-yl]formamido}decanamide] (X4-P[Gly(octyl)]L[Aib]LL[Aib][Aib][βAla]-{NH((S)CH(Me)CH2NMe2)})
[1]
  IC50: 42.6 µM
[2]
  IC50: 24.8 µM
Plasmodium falciparum
  IC50: 42.6 µM
[3]
  IC50: 42.6 µM
[4]
  IC50: 0.0411 µM

## CCCCCCCC[C@H](NC(=O)[C@@H]1CCCN1C(=O)c1ccc2[nH]ccc2c1)C(=O)N[C@@H](CC(C)C)C(=O)NC(C)(C)C(=O)N[C@@H](CC(C)C)C(=O)N[C@@H](CC(C)C)C(=O)NC(C)(C)C(=O)NC(C)(C)C(=O)NCCC(=O)N[C@@H](C)CN(C)C [Compound 5911, (2S)-N-[(1S)-1-[(1-{[(1S)-1-{[(1S)-1-{[1-({1-[(2-{[(2S)-1-(dimethylamino)propan-2-yl]carbamoyl}ethyl)carbamoyl]-1-methylethyl}carbamoyl)-1-methylethyl]carbamoyl}-3-methylbutyl]carbamoyl}-3-methylbutyl]carbamoyl}-1-methylethyl)carbamoyl]-3-methylbutyl]-2-{[(2S)-1-(1H-indole-5-carbonyl)pyrrolidin-2-yl]formamido}decanamide] (X20-P[Gly(octyl)]L[Aib]LL[Aib][Aib][βAla]-{NH((S)CH(Me)CH2NMe2)})
[1]
  IC50: 0.0348 µM
[2]
  IC50: 25.6 µM
Plasmodium falciparum
  IC50: 42.5 µM
[3]
  IC50: 0.0144 µM
[4]
  IC50: 0.034 µM

## CCCCCCCC[C@H](NC(=O)[C@@H]1CCCN1C(=O)c1ccc(OC)cc1)C(=O)N[C@@H](CC(C)C)C(=O)NC(C)(C)C(=O)N[C@@H](CC(C)C)C(=O)N[C@@H](CC(C)C)C(=O)NC(C)(C)C(=O)NC(C)(C)C(=O)NCCC(=O)N[C@@H](C)CN(C)C [Compound 5912, (2S)-N-[(1S)-1-[(1-{[(1S)-1-{[(1S)-1-{[1-({1-[(2-{[(2S)-1-(dimethylamino)propan-2-yl]carbamoyl}ethyl)carbamoyl]-1-methylethyl}carbamoyl)-1-methylethyl]carbamoyl}-3-methylbutyl]carbamoyl}-3-methylbutyl]carbamoyl}-1-methylethyl)carbamoyl]-3-methylbutyl]-2-{[(2S)-1-(4-methoxybenzoyl)pyrrolidin-2-yl]formamido}decanamide] ({Benzoyl(4-OMe)}-P[Gly(octyl)]L[Aib]LL[Aib][Aib][βAla]-{NH((S)CH(Me)CH2NMe2)})
[1]
  IC50: 42.6 µM
[2]
  IC50: 0.0003 µM
Plasmodium falciparum
  IC50: 20.9 µM
[3]
  IC50: 41.4 µM
[4]
  IC50: 17.8 µM

## CCCCCCCC[C@H](NC(=O)[C@@H]1CCCN1C(=O)c1ccc(C(F)(F)F)cc1)C(=O)N[C@@H](CC(C)C)C(=O)NC(C)(C)C(=O)N[C@@H](CC(C)C)C(=O)N[C@@H](CC(C)C)C(=O)NC(C)(C)C(=O)NC(C)(C)C(=O)NCCC(=O)N[C@@H](C)CN(C)C [Compound 5936, (2S)-N-[(1S)-1-[(1-{[(1S)-1-{[(1S)-1-{[1-({1-[(2-{[(2S)-1-(dimethylamino)propan-2-yl]carbamoyl}ethyl)carbamoyl]-1-methylethyl}carbamoyl)-1-methylethyl]carbamoyl}-3-methylbutyl]carbamoyl}-3-methylbutyl]carbamoyl}-1-methylethyl)carbamoyl]-3-methylbutyl]-2-{[(2S)-1-[4-(trifluoromethyl)benzoyl]pyrrolidin-2-yl]formamido}decanamide] ({Benzoyl(4-CF3)}-P[Gly(octyl)]L[Aib]LL[Aib][Aib][βAla]-{NH((S)CH(Me)CH2NMe2)})
[1]
  IC50: < 0.0332 µM
[2]
  IC50: 0.0007 µM
Plasmodium falciparum
  IC50: 31.3 µM
[3]
  IC50: 11.7 µM
[4]
  IC50: 0.0526 µM

## CCCCCCCC[C@H](NC(=O)[C@@H]1CCCN1C(=O)c1ccc2ocnc2c1)C(=O)N[C@@H](CC(C)C)C(=O)NC(C)(C)C(=O)N[C@@H](CC(C)C)C(=O)N[C@@H](CC(C)C)C(=O)NC(C)(C)C(=O)NC(C)(C)C(=O)NCCC(=O)N[C@@H](C)CN(C)C [Compound 5937] (X21-P[Gly(octyl)]L[Aib]LL[Aib][Aib][βAla]-{NH((S)CH(Me)CH2NMe2)})
[1]
  IC50: 0.0585 µM
[2]
  IC50: 43.5 µM
Plasmodium falciparum
  IC50: 27.6 µM
[3]
  IC50: 0.0212 µM
[4]
  IC50: 0.0454 µM

## CCCCCCCC[C@H](NC(=O)[C@@H]1CCCN1C(=O)c1ccc2cccnc2c1)C(=O)N[C@@H](CC(C)C)C(=O)NC(C)(C)C(=O)N[C@@H](CC(C)C)C(=O)N[C@@H](CC(C)C)C(=O)NC(C)(C)C(=O)NC(C)(C)C(=O)NCCC(=O)N[C@@H](C)CN(C)C [Compound 5938, (2S)-N-[(1S)-1-[(1-{[(1S)-1-{[(1S)-1-{[1-({1-[(2-{[(2S)-1-(dimethylamino)propan-2-yl]carbamoyl}ethyl)carbamoyl]-1-methylethyl}carbamoyl)-1-methylethyl]carbamoyl}-3-methylbutyl]carbamoyl}-3-methylbutyl]carbamoyl}-1-methylethyl)carbamoyl]-3-methylbutyl]-2-{[(2S)-1-(quinoline-7-carbonyl)pyrrolidin-2-yl]formamido}decanamide] (X15-P[Gly(octyl)]L[Aib]LL[Aib][Aib][βAla]-{NH((S)CH(Me)CH2NMe2)})
[1]
  IC50: 0.0378 µM
[2]
  IC50: 0.0005 µM
Plasmodium falciparum
  IC50: 13.2 µM
[3]
  IC50: 42.4 µM
[4]
  IC50: 42.4 µM

From patent EP3345917A1, “ANTIPROTOZOAL COMPOUNDS” (Bacoba AG, priority 2017, dated 2018)
